Peptide text beside a SMILES is read from it. * marks the point of attachment. NHtBu = CC(C)(C)N*
Row | SMILES | logP
1 | CC(=O)N[C@@H](CC(C)C)C(=O)N[C@H](C(N)=O)C(C)C (Ac-Leu-Val-NH2) | 0.26
2 | CCCC(CC(C)=O)C(=O)O (stereo not given) | 1.31
3 | O=C(O)CCn1nnc2ccccc21 | -0.63
4 | ClCBr | 1.41
5 | CCN(CC)N=Nc1ccc(S(C)(=O)=O)cc1 | 2.6
6 | CCCCCF | 2.33
7 | NC(=S)c1cccs1 | 1.34
8 | COc1cccc(CC(=O)O)c1 | 1.5
9 | CC(=O)c1ccc(Cl)cc1 | 2.32
10 | C=C(Br)CC1(C(C)C)C(=O)NC(=O)N(C)C1=O (stereo not given) | 2.11
11 | CN(C)C(N(C)C)=S(I)c1ccccc1[N+](=O)[O-] (stereo not given) | -0.92
12 | CNC(=O)C1C(C)CC2C3CCC4=CC(=O)C=CC4(C)C3(F)C(O)CC21C (stereo not given) | 1.54
13 | O=C(Oc1ccccc1)n1cc(F)c(=O)[nH]c1=O | 0.64
14 | COc1ccc(-c2nc3cnccc3n2C)c(OC)c1 | 2.66
15 | COc1ccc(NC(C)=O)cc1 | 1.03
16 | CC(=O)c1ccc(C(=O)OCCN(C)C)cc1 | 1.57
17 | CCCOC(=O)c1ccccc1C(=O)OCCC | 3.27
18 | CN(C)CCN(C)S(=O)(=O)c1ccc(C(C)(C)[N+](=O)[O-])c([N+](=O)[O-])c1 | 1.42
19 | O=C(O)C1COc2ccccc2O1 (stereo not given) | 1.4
20 | S=C=Nc1cccc2ccccc12 | 4.34
21 | COP(=S)(OC)SCSc1ccc(Cl)cc1 | 4.82
22 | O=C1CC(=O)NC(=O)N1 | -1.47
23 | CC(C)=CC1C(C(=O)OCN2C(=O)C3=C(CCCC3)C2=O)C1(C)C (stereo not given) | 4.73
24 | CS(=O)(=O)Nc1ccccc1 | 0.95

Row | SMILES | logP
25 | COc1cnc2ccccc2n1 | 2.31
26 | CC(=O)Oc1c[nH]c2ccccc12 | 2.01
27 | CC(=O)Nc1ccc2cccnc2c1 | 1.55
28 | CC(=O)C1CC1 | 0.49
29 | c1ccc(-c2ccc(NCCN3CCOCC3)nn2)cc1 | 1.85
30 | CCCCCOC(=O)c1ccc(N)cc1 | 3.48
31 | COC(=O)C(CC(C)C)NC(C)=O (stereo not given) | 0.84
32 | CCOP(=O)(N=C1SCC(C)S1)OCC (stereo not given) | 1.04
33 | Clc1cc(Cl)nc(-c2ccccc2)n1 | 4.17
34 | CN(C)c1nc(N(C)C)nc(N(C)C)n1 | 2.73
35 | OCc1cccc(O)c1 | 0.49
36 | CSc1ncc2ccccc2n1 | 2.5
37 | CCCCSCS(=O)CC(CO)NC(=O)C=Cc1c(C)[nH]c(=O)[nH]c1=O (stereo not given) | 0.14
38 | CN(C)CC(F)(F)F | 1.06
39 | O=C(O)c1ccccc1S | 2.39
40 | NS(=O)(=O)c1cc2c(cc1Cl)NC(Cc1ccccc1)NS2(=O)=O (stereo not given) | 0.93
41 | Nc1nccc(=O)[nH]1 | -0.99
42 | COc1cccc2cccnc12 | 1.84
43 | CCn1cc(C)c(=O)[nH]c1=O | -0.15
44 | CC(=O)Nc1c(C)cc(O)cc1C | 0.31
45 | CCC(=O)c1ccccc1 | 2.19
46 | COC(=O)C12OCC34C(CC5C(C)=C(O)C(=O)CC5(C)C3C(O)C1O)OC(=O)C(OC(=O)C=C(C)C(C)C)C24 (stereo not given) | 1.66
47 | FC(F)(F)Oc1ccccc1 | 3.17
48 | N#Cc1ccncc1C#N | 0.24

Row | SMILES | logP
49 | CC(C(=O)O)c1ccc(N2CC3=C(CCCC3)C2=O)cc1 (stereo not given) | 3.07
50 | NS(=O)(=O)c1cccc([N+](=O)[O-])c1 | 0.55
51 | Cc1nn(C)c(OCC(=O)c2ccccc2)c1C(=O)c1ccc(Cl)cc1Cl | 3.69
52 | CC1=C(O)OC2CC(C)C3C=CC(=O)C3(C)C(O)C12 (stereo not given) | 1.13
53 | N#Cc1ccc([N+](=O)[O-])cc1 | 1.19
54 | O=C1CCC(=O)N1c1ccccc1 | 0.06
55 | COP(=S)(OC)Oc1cc(Cl)c(Br)cc1Cl | 5.21
56 | COc1cccc(O)c1 | 1.34
57 | CS(C)(=O)=O | -1.41
58 | CN(C)C(=O)OCc1ccc(C(F)(F)F)cc1 | 3.08
59 | CCCOCCC | 2.03
60 | O=C(O)c1cccc(I)c1 | 3.13
61 | c1ccc(-c2cc3ccccc3[nH]2)nc1 | 3.33
62 | CC(C)(C)C(=O)C(C)(C)C | 3
63 | CCc1cc(OP(=S)(OC)OC)ccc1[N+](=O)[O-] | 3.74
64 | Cc1ccc(NS(=O)(=O)c2ccc(N)cc2)cc1 | 2.11
65 | CC1=Nc2ccc(Cl)cc2S(=O)(=O)N1 | 1.2
66 | Cc1cc(C)c(N(C)C)c(C)c1 | 4.41
67 | COC(=O)c1ccccc1OC(C)=O | 1.46
68 | O=[N+]([O-])c1ccc(O)c2ncccc12 | 1.99
69 | CCOC(=O)c1cccs1 | 2.33
70 | O=C1C=C(NCCO)C(=O)c2ccccc21 | 1.23
71 | C1=COCCC1 | 0.69
72 | O=CNc1cccc([N+](=O)[O-])c1 | 1.4

Row | SMILES | logP
73 | CNC(=O)NC | -0.49
74 | O=C(CCBr)N1CCN(C(=O)CCBr)CC1 | 0.42
75 | CN(C)C(=O)Oc1ccccc1 | 1.56
76 | CCOP(=S)(OCC)SCn1nnc2ccccc2c1=O | 3.4
77 | CC(=O)NC(C)C(=O)NC(Cc1ccccc1)C(=O)NC(C)C(=O)NC(C)(C)C (stereo not drawn) (Ac-Ala-Phe-Ala-NHtBu; configuration not given here) | 1.01
78 | O=[N+]([O-])c1cccc(CO)c1 | 1.21
79 | NCc1cccnc1 | -0.32
80 | O=C(O)CCC(Nc1ccc(Br)cc1)C(=O)O (stereo not given) | 1.12
81 | C=CNP(=O)(NC=C)NC(=O)c1ccc(OC)cc1 | 1.08
82 | COc1cccc(COC(=O)N(C)C)c1 | 2.09
83 | O=C(O)c1ccccc1O | 2.26
84 | CCCOP(OCCC)OCCC | 2.26
85 | N#CCN | -1.37
86 | CC12CC3CC(C)(C1)CC(N)(C3)C2 | 3.28
87 | Clc1ccccc1-c1ccccc1 | 4.53
88 | c1ccnnc1 | -0.72
89 | CC(=O)OC(C)(C)C | 1.76
90 | O=C(C=Cc1ccco1)c1ccco1 | 2.34
91 | CN(C)c1cccc(O)c1 | 1.56
92 | CCOP(=O)(Cc1ccc(-c2nc3ccccc3s2)cc1)N1CCCC1=O (stereo not given) | 3
93 | O=C(O)Cc1ccc(Br)cc1 | 2.31
94 | C=CC(=O)OCCO | -0.21
95 | CCCCCC(=O)O | 1.92
96 | O=C(O)c1cc([N+](=O)[O-])ccc1Cl | 2.03

Row | SMILES | logP
97 | CN(O)C(N)=O | -0.46
98 | S=C1CCCCN1 | 0.13
99 | CC=Cc1ccccc1 | 3.35
100 | C1=CC=CC=CC=C1 | 3.08
101 | O=[N+]([O-])c1cc2ccccc2[n+]([O-])c1 | 0.56
102 | CCCCCCOCc1cccc(NC(=O)OCCN2CCCCC2)c1 | 4.97
103 | CCCC(=NOCC)C1C(=O)CC2(CCCCC2)OC1=O (stereo not given) | 3.62
104 | O=Nc1c(O)ccc2ccccc12 | 2.28
105 | CCN(CC)c1ccccc1 | 3.31
106 | CC(C)C(Br)C(=O)NC(N)=O (stereo not given) | 1.14
107 | CC(C)S[C@@H]1O[C@H](CO)[C@H](O)[C@H](O)[C@H]1O | -1.26
108 | NC(Cc1ccc([N+](=O)[O-])cc1)C(=O)O (stereo not given) | -1.25
109 | C1CCOC1 | 0.46
110 | O=C(O)c1c(Cl)cccc1Cl | 2.23
111 | CCc1ccc(S(I)=C(N(C)C)N(C)C)cc1 (stereo not given) | 0.29
112 | Cc1cc2ccccc2n1C | 2.82
113 | N#CCc1cccc(Oc2ccccc2)c1 | 3.03
114 | CN(C)c1ccc2cccnc2c1 | 2.71
115 | O=[N+]([O-])c1ccc(O)c([N+](=O)[O-])c1 | 1.67
116 | CCCCCCCI | 4.7
117 | O=C(Nc1ccc(Cl)c(Cl)c1)C1CC1 | 3.83
118 | CNc1nc(NC(C)C)nc(SC(F)F)n1 | 3.27
119 | NCCO | -1.31
120 | COc1ccc(C(C[N+](=O)[O-])c2ccc(OC)cc2)cc1 | 3.57
